The target in one assay is T1, HO-1 (rat spleen) (Rattus norvegicus, UniProt P06762).
T1 construct: Spleen microsomes were used as a source of HO-1; from tissue; host or cells: spleen microsomal fraction of adult male Sprague-Dawley rats
T1 sequence (P06762 1-289): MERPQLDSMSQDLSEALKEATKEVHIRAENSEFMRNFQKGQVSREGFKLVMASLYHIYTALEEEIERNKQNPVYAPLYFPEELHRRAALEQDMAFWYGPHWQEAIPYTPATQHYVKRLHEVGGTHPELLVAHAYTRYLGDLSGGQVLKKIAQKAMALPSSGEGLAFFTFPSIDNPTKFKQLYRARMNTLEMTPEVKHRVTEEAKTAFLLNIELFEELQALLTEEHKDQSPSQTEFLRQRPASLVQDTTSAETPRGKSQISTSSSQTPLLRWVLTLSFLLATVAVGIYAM
Briefly: HO enzymatic activity in rat spleen microsomal fraction (CO formed from methemalbumin, gas chromatography). The format is biochemical. The method, then: (§1) Incubations for HO activity analysis were done under conditions for which the rate of CO formation (pmol CO×min^−1×mg protein^−1) was linear with respect to time and microsomal protein concentration. Briefly, reaction mixtures (150 μL) consisting of 100 mM phosphate buffer (pH 7.4), 50 μM methemalbumin, and 1 mg/mL protein were pre-incubated with the inhibitors at final concentrations ranging from 0.1-100 μM for 10 minutes at 37° C. Reactions were initiated by adding NADPH at a final concentration of 1 mM and incubations were performed for an additional 15 minutes at 37° C.
(§2) Incubations for HO activity analysis were done under conditions for which the rate of CO formation (pmol CO/mg protein/minute) was linear with respect to time and microsomal protein concentration. Briefly, reaction mixtures (150 μL) consisting of 100 mM phosphate buffer (pH 7.4), 50 μM methemalbumin and 1 mg/mL protein were pre-incubated with the vehicle (ethanol or water in which the inhibitors were dissolved), or inhibitors at final concentrations ranging from 0.1-1000 μM for 10 minutes at 37° C. Reactions were initiated by adding β-NADPH at a final concentration of 1 mM and incubations were carried out for an additional 15 minutes at 37° C. Reactions were stopped by instantly freezing the reaction mixture on pulverized dry ice and CO formation was measured by gas chromatography using a TA 3000R Process Gas Analyzer (Trace Analytical/Ametek, Newark, Del., USA).
(§3) The values on the abscissa represent the decimal logarithm of the inhibitor's concentration (in μM), whereas the values of the activity on the ordinate are expressed as a percentage of the control experiments without inhibitor.
(§4) The IC50 values for the replicate experiments were employed to generate the reported standard deviation value.

The target in another assay is T2, HO-2 (rat brain) (Rattus norvegicus, UniProt P23711).
T2 construct: brain microsomes were used as a source of HO-2; from tissue; host or cells: brain microsomal fraction of adult male Sprague-Dawley rats
T2 sequence (P23711 1-315): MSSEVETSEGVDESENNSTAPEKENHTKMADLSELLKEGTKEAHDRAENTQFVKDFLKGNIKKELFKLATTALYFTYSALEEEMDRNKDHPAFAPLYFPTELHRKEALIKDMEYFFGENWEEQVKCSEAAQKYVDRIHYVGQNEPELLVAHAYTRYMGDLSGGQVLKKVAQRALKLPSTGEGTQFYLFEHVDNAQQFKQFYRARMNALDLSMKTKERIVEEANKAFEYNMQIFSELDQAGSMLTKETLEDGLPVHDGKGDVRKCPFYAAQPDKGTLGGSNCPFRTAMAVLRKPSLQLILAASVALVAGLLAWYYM
Briefly: HO enzymatic activity in rat brain microsomal fraction (CO formed from methemalbumin, gas chromatography). The format is biochemical. The method, then: as §1, §2, §3, §4

The mark [1] stands for this setting: rat spleen microsomes, average ± standard deviation of replicate experiments, read-out: IC50 HO-1 (rat spleen)/μM.
Setting [2] is: rat brain microsomes, average ± standard deviation of replicate experiments, read-out: IC50 HO-2 (rat brain)/μM.

Structures are written as SMILES. Structures can show the parent of a compound that is named as a salt. Where two headings read alike, the source gives them in different places.

Consider `Clc1ccc(/C(Cn2ccnc2)=N\Nc2ccccc2)cc1`, for which the IC50 on HO-1 (rat spleen) (setting [1]) and at HO-2 (rat brain) (setting [2]) was more than 100 µM in each case.

Consider `[N-]=[N+]=NCC(=O)c1ccc(Br)cc1`, for which the IC50 at HO-1 (rat spleen) (setting [1]) and at HO-2 (rat brain) (setting [2]) was more than 100 µM each time.

On to `O=C(Cn1cnnc1)c1ccc(Cl)cc1`, for which the IC50 on HO-1 (rat spleen) (setting [1]) and at HO-2 (rat brain) (setting [2]) was more than 100 µM each time.

Consider `Fc1ccc(-c2ccno2)cc1`, for which the IC50 at HO-1 (rat spleen) (setting [1]) and on HO-2 (rat brain) (setting [2]) was more than 100 µM each time.

As for `O=C(Cn1cncn1)c1ccc2c(c1)OCCO2`, the IC50 was 18 ± 4 µM on HO-1 (rat spleen) (setting [1]) and more than 100 µM at HO-2 (rat brain) (setting [2]).

Consider `c1ccc2[nH]c(CN3CCCC3)nc2c1`, for which the IC50 on HO-1 (rat spleen) (setting [1]) and on HO-2 (rat brain) (setting [2]) was more than 100 µM throughout.

Regarding `OC(CCc1ccccc1)Cn1cnc(-c2ccccc2)c1-c1ccccc1` (racemic) [(±)-1-(4,5-diphenyl-imidazol-1-yl)-4-phenyl-butan-2-ol], the IC50 on HO-1 (rat spleen) (setting [1]) and at HO-2 (rat brain) (setting [2]) was more than 100 µM throughout.

In the case of `OC(Cn1ccnc1)c1ccc(Cl)cc1` (racemic) [(±)-1-(4-chloro-phenyl)-2-imidazol-1-yl-ethanol hydrochloride], the IC50 worked out at 1.19 ± 0.03 µM on HO-1 (rat spleen) (setting [1]) and 16 ± 8 µM on HO-2 (rat brain) (setting [2]).

In the case of `Fc1ccc(COC(Cn2ccnc2)c2ccc(CCc3ccccc3)cc2)cc1` (racemic) [(±)-1-[2-(4-fluoro-benzyloxy)-2-(4-phenethyl-phenyl)-ethyl]-1H-imidazole], the IC50 at HO-1 (rat spleen) (setting [1]) was approximately 7 µM; at HO-2 (rat brain) (setting [2]) it was more than 100 µM.

Turning to `Fc1ccc(COC(Cn2ccnc2)c2ccc(-c3ccc(Br)cc3)cc2)cc1` (racemic) [(±)-1-[2-(4′-bromo-biphenyl-4-yl)-2-(4-fluoro-benzyloxy)-ethyl]-1H-imidazole], the results for the IC50 at HO-1 (rat spleen) (setting [1]) and at HO-2 (rat brain) (setting [2]) were 5 ± 2 µM and more than 100 µM, respectively.

`OC(CCn1ccnc1)C12CC3CC(CC(C3)C1)C2` (racemic) [(±)-1-adamantan-1-yl-3-imidazol-1-yl-propan-1-ol hydrochloride]: the IC50 at HO-1 (rat spleen) (setting [1]) is 2 ± 0.6 µM; on HO-2 (rat brain) (setting [2]) it was 6.5 ± 0.1 µM.

For the compound `O=C(c1ccccc1)C(c1ccccc1)n1ccnc1` (racemic) [(±)-2-imidazol-1-yl-1,2-diphenyl-ethanone hydrochloride], the IC50 on HO-1 (rat spleen) (setting [1]) is 24 ± 6 µM; on HO-2 (rat brain) (setting [2]) it was more than 100 µM.

As for `OC(Cn1ccnc1)c1ccc(CCc2ccccc2)cc1` (racemic) [(±)-2-imidazol-1-yl-1-(4-phenethyl-phenyl)-ethanol], the IC50 at HO-1 (rat spleen) (setting [1]) was 0.225 ± 0.004 µM; on HO-2 (rat brain) (setting [2]), 1 ± 1 µM.

As for `CC(C(=O)c1ccccc1)n1ccnc1` (racemic) [(±)-2-imidazol-1-yl-1-phenyl-propan-1-one hydrochloride], the IC50 at HO-1 (rat spleen) was 49 ± 2 µM; at HO-2 (rat brain) it was more than 100 µM.

Turning to `O=C1c2ccccc2CC1n1ccnc1` (racemic) [(±)-2-imidazol-1-yl-indan-1-one hydrochloride], the IC50 on HO-1 (rat spleen) (setting [1]) and at HO-2 (rat brain) (setting [2]) was more than 100 µM in each case.

In the case of `O=C(Cc1ccccc1)C(Cn1ccnc1)c1ccccc1` (racemic) [(±)-4-(1H-imidazol-1-yl)-1,3-diphenyl-butan-2-one hydrochloride], the IC50 on HO-1 (rat spleen) (setting [1]) is 3.85 ± 0.07 µM; at HO-2 (rat brain) (setting [2]), more than 100 µM.

With `CC(O)C(Cc1ccc(Cl)cc1)n1ccnc1` (racemic) [(±)-4-(4-chlorophenyl)-3-imidazol-1-yl-butan-2-ol hydrochloride], the IC50 was 40 ± 2 µM on HO-1 (rat spleen) and more than 100 µM on HO-2 (rat brain).

For `CC(=O)C(Cc1ccc(Cl)cc1)n1ccnc1` (racemic) [(±)-4-(4-chlorophenyl)-3-imidazol-1-yl-butan-2-one hydrochloride], the IC50 against HO-1 (rat spleen) and against HO-2 (rat brain) was more than 100 µM in each case.

On to `OC(CCc1ccccc1)Cn1cnc(-c2ccccc2)c1` (racemic) [(±)-4-phenyl-1-(4-phenyl-imidazol-1-yl)-butan-2-ol hydrochloride], for which the IC50 at HO-1 (rat spleen) (setting [1]) was 15 ± 1 µM; on HO-2 (rat brain) (setting [2]), more than 100 µM.

Take `OC(CCc1ccccc1)Cn1ccnn1` (racemic) [(±)-4-phenyl-1-[1,2,3]triazol-1-yl-butan-2-ol hydrochloride]: the IC50 on HO-1 (rat spleen) (setting [1]) is 44 ± 1 µM; at HO-2 (rat brain) (setting [2]), more than 100 µM.

Take `OC(CCc1ccccc1)Cn1cncn1` (racemic) [(±)-4-phenyl-1-[1,2,4]triazol-1-yl-butan-2-ol hydrochloride]: the IC50 is 10.2 ± 0.2 µM at HO-1 (rat spleen) (setting [1]) and 54 ± 12 µM at HO-2 (rat brain).

With `OC(CCc1ccccc1)Cn1cnnn1` (racemic) [(±)-4-phenyl-1-tetrazol-1-yl-butan-2-ol hydrochloride], the results for the IC50 on HO-1 (rat spleen) (setting [1]) and on HO-2 (rat brain) (setting [2]) were 56 ± 6 µM and more than 100 µM, respectively.

Take `OC(CCc1ccccc1)Cn1ncnn1` (racemic) [(±)-4-phenyl-1-tetrazol-2-yl-butan-2-ol hydrochloride]: the IC50 against HO-1 (rat spleen) and at HO-2 (rat brain) was more than 100 µM each time.

Consider `CC(=O)C(Cc1ccccc1)n1cncn1` (racemic) [(±)-4-phenyl-3-[1,2,4]triazol-1-yl-butan-2-one], for which the IC50 at HO-1 (rat spleen) (setting [1]) is more than 100 µM. The “IC50 HO-2 (rat brain)/μM” value at HO-2 (rat brain) (rat brain microsomes, average ± standard deviation of replicate experiments) is given as “INACTIVE”.

For the compound `Clc1ccc(C(Cn2ccnc2)NCc2ccccc2)cc1` (racemic) [(±)-benzyl-[1-(4-chloro-phenyl)-2-imidazol-1-yl-ethyl]amine dihydrochloride], the IC50 on HO-1 (rat spleen) (setting [1]) came to 3.39 ± 0.08 µM; on HO-2 (rat brain) (setting [2]), 22 ± 4 µM.

Turning to `OC(Cn1ccnc1)c1ccc(-c2ccc(Br)cc2)cc1` (racemic) [drawing 342, (±)-1-(4′-bromo-biphenyl-4-yl)-2-imidazol-1-yl-ethanol], the IC50 on HO-1 (rat spleen) (setting [1]) is 0.06 ± 0.03 µM; on HO-2 (rat brain) (setting [2]) it was more than 100 µM.

Take `Clc1ccc(CC[C@@]2(Cn3ccnc3)OCC(COc3ccc(I)cc3)O2)cc1` (stereo in doubt) [(2R,4S)-1-[2-[2-(4-chloro-phenyl)-ethyl]-4-(4-iodo-phenoxymethyl)-[1,3]dioxolan-2-ylmethyl]-1H-imidazole hydrochloride]: the results for the IC50 on HO-1 (rat spleen) (setting [1]) and on HO-2 (rat brain) (setting [2]) were 9 ± 3 µM and 15 ± 4 µM, respectively.

For the compound `COc1ccc(OCC2CO[C@@](CCc3ccc(Cl)cc3)(Cn3ccnc3)O2)cc1` (stereo in doubt) [(2R,4S)-1-[2-[2-(4-chloro-phenyl)-ethyl]-4-(4-methoxy-phenoxymethyl)-[1,3]dioxolan-2-ylmethyl]-1H-imidazole hydrochloride], the IC50 on HO-1 (rat spleen) (setting [1]) came out at 1.33 ± 0.03 µM; at HO-2 (rat brain) (setting [2]), 19 ± 7 µM.

As to `COCC1CO[C@@](CCc2ccc(Cl)cc2)(Cn2ccnc2)O1` (stereo in doubt) [(2R,4S)-1-{2-[2-(4-chloro-phenyl)-ethyl]-4-methoxymethyl-[1,3]dioxolan-2-ylmethyl}-1H-imidazole hydrochloride], the IC50 at HO-1 (rat spleen) (setting [1]) worked out at 1.73 ± 0.01 µM; on HO-2 (rat brain) (setting [2]), 3.3 ± 0.9 µM.

As to `Clc1ccc(CC[C@@]2(Cn3ccnc3)OCC(COc3ccccc3)O2)cc1` (stereo in doubt) [(2R,4S)-1-{2-[2-(4-chloro-phenyl)-ethyl]-4-phenoxymethyl-[1,3]dioxolan-2-ylmethyl}-1H-imidazole hydrochloride], the IC50 on HO-1 (rat spleen) (setting [1]) was found to be 0.59 ± 0.04 µM; at HO-2 (rat brain) (setting [2]), 1.6 ± 0.3 µM.

`Clc1ccc(CC[C@@]2(Cn3ccnc3)OCC(COc3ccc(Br)cc3)O2)cc1` (stereo in doubt) [(2R,4S)-1-{4-(4-bromo-phenoxymethyl)-2-[2-(4-chloro-phenyl)-ethyl]-[1,3]dioxolan-2-ylmethyl}-1H-imidazole hydrochloride]: the IC50 on HO-1 (rat spleen) (setting [1]) was determined as 3.5 ± 0.2 µM; on HO-2 (rat brain) (setting [2]) it was 22 ± 8 µM.

For `Clc1ccc(CC[C@@]2(Cn3ccnc3)OCC(COc3ccc(C45CC6CC(CC(C6)C4)C5)cc3)O2)cc1` (stereo in doubt) [(2R,4S)-2-[2-(4-chlorophenyl)ethyl]-2-[(1H-imidazol-1-yl)methyl]-4-[(4-adamantan-1-yl-phenoxy)methyl]-1,3-dioxolane hydrochloride], the IC50 on HO-1 (rat spleen) (setting [1]) and at HO-2 (rat brain) (setting [2]) was more than 100 µM each time.
